{
  "source": "patent US20060166894A1",
  "about": "“Ace-inhibitors having antioxidant and no-donor activity” (Yissum Research Development Company of the Hebrew …, priority 2002, published 2006)",
  "target": "T1, recombinant human somatic ACE (Homo sapiens, UniProt P12821)",
  "T1 construct": "purchased R&D Systems",
  "T1 sequence (P12821 30-1306)": "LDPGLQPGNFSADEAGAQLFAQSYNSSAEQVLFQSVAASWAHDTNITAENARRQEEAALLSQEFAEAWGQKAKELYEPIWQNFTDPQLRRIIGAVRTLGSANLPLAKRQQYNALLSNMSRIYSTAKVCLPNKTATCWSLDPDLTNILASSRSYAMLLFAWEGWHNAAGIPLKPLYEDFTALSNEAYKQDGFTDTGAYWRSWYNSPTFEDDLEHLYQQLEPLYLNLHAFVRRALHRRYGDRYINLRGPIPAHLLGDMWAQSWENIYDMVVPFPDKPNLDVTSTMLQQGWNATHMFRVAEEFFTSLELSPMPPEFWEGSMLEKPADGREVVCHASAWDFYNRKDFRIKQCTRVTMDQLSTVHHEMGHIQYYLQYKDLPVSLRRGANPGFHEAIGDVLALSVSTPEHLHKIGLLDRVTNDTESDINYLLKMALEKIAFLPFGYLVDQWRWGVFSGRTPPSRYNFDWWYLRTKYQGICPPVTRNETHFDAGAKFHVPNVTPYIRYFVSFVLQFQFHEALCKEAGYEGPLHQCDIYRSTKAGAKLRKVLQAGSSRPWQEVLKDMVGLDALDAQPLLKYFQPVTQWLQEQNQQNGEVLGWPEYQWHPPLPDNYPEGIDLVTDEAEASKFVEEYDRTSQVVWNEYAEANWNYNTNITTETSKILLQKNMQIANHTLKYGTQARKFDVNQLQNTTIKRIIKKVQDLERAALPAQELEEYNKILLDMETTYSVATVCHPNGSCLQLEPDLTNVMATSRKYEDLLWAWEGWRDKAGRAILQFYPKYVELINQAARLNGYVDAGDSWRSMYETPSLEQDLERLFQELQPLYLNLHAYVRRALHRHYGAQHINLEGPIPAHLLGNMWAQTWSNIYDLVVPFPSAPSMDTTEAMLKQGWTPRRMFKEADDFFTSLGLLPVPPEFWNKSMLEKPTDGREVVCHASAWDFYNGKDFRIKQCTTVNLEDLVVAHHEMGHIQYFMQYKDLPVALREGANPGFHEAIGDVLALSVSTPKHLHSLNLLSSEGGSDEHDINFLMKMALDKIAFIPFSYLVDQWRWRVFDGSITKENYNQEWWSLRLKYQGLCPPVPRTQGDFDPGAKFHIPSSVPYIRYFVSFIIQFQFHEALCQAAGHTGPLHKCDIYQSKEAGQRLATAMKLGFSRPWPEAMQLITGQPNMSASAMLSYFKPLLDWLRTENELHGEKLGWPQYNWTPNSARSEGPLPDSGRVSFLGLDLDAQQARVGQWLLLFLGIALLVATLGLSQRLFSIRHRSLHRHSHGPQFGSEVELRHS",
  "experiment": "ACE activity, cleavage of fluorogenic peptide substrate",
  "type": "biochemical",
  "settings": "fluorogenic substrate 10 μM, 50 mM sodium borate buffer pH 8.2, 37° C.",
  "text": "Angiotensin converting enzyme (ACE) is a dipeptidyl carboxypeptidase that releases the C-terminal dipeptide His-Leu from decapeptide angiotensin I, converting it to the vasoconstrictor angiotensin II (Ang II). The assay for ACE activity will measure the cleavage of a fluorogenic peptide substrate, (7-methoxycoumarin-4-yl)acetyl-Arg-Pro-Pro-Gly-Phe-Ser-Ala-Phe-Lys(2,4 dinitrophenyl; R&D Systems). This peptide substrate contains a fluorescent 7-methoxycoumarin group that is internally quenched by resonance energy transfer to the 2,4-dinitrophenyl group. ACE cleaves the peptide between the Ala-Phe (between the fluorescent group and the quencher group), resulting in an increase in fluorescence. The assay is carried out in a 96-well plate. […] Fluorescence changes (relative fluorescence units/min, RFU/min) are measured using a fmax fluorescence microplate reader (Molecular Devices with SoftmaxPro software) at 37° C. with excitation and emission wavelengths of 320 nm and 405 nm, respectively. A background rate determined for samples containing no ACE is subtracted from all reactions to calculate the initial rates in RFU/min. […]\nThe ACE activity of the compound N-{2-([1,2]dithiolan-3-yl)-propionyl}-pyrrolidine-2-carboxylic acid was measured as described above.",
  "data": [
    {"smiles": "CC(C(=O)N1CCCC1C(=O)O)C1CCSS1", "note": "(stereo not shown) [N-{2-([1,2]Dithiolan-3-yl)-propionyl}-pyrrolidine-2-carboxylic acid]", "values": [
      {"measurement": "IC50", "result": 64, "unit": "µM"}
    ]}
  ]
}
